Reference: paper PMC11061149, “Protein mimetic 2D FAST rescues alpha synuclein aggregation mediated early and post disease Parkinson’s phenotypes” (Nature Communications, 2024)
Several values for one entry are separate records, joined by “and”; a condition that tells them apart may be missing. Identical values can stand only once.

Experiments:
[1] = target: T1, α-Synuclein (αS) aggregation (Homo sapiens, UniProt P37840); experiment: Thioflavin T (ThT) dye-based αS aggregation assay (de novo); type: biochemical
T1 construct: made in house; host or cells: E. coli BL21(DE3)
Method in brief: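 100 μM αS incubated ±ligand at equimolar ratio, 37 °C with shaking at 1300 rpm; aliquots diluted into PBS containing 50 μM ThT. Fluorescence read at λex 450/λem 490 nm over time, single-point value taken at 96 h; mean of triplicates.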

[2] = system: NL5901 worms (αS-YFP in body wall muscle cells); experiment: Confocal counting of αS-YFP inclusions in NL5901 worms; type: in vivo, C. elegans; details: for number of inclusions in NL5901, individual trials: 50 µM ligand; for number of inclusions: 50 μM ligand
Procedure: In NL5901 strain, αS-YFP is expressed in the muscle cells of worms. The aggregates of αS-YFP are visible from day 4 and the maximum number of αS-YFP aggregates are visible round day 8 and day 9. The standard worm conditions were used for the culturing of various worm strains. […] The cultures of OP50 were prepared by incubating 50 mL of LB medium with OP50 18 h at 37 °C and the final OD value was adjusted to 0.5 at 600 nm. The NGM plates were prepared by treating them with 350 µL OP50 and leaving the plates at 20 °C for 3 days. […] The NGM plates (with NGM media) were used for the treatment of different worm strains with ligands. […] The NGM plates treated with ligands were prepared and used within 24 h. We used these plates to treat various disease strains for different assays. This experiment was performed based on previously described protocols with slight modifications[24],[65],[88]. […] On day two, the worms were divided into two batches. […] On day four, the ligand (10–50 µM, stock conc. = 10 mM in DMSO, DMSO from 0.1–0.5%, v/v) was added again to PLATE 3. […] For each condition, six biological replicates were performed and at least 10 technical replicates were used for each biological replicate. […] (n = 6 independent experiments and each n consisted of a minimum of ten technical replicates).

[3] = system: UA196 worms; experiment: Confocal counting of healthy DA neurons, post-disease onset PD model of UA196 worms (treatment on day five); type: in vivo, C. elegans
Procedure: The UA196 worms were bleached, and the eggs were incubated on PLATE 1. On day two, the UA196 worms were transferred (using M9 buffer) on PLATE 2 (without ligand). On day five, 10 UA196 worms were used to determine the number of healthy DA worms using confocal imaging (as described earlier) prior to the treatment with ligands on day five. In tandem, ~50 worms were transferred to PLATE 3 (with ligand) using M9 buffer (10-20 µL) and the plate was incubated at 20 °C in the incubator. On days 10 and 15, 10 UA196 worms from PLATE 2 (without ligand) and PLATE 3 (with ligand) were used to determine the number of healthy DA worms using confocal imaging (as described earlier). For each condition, six biological replicates were performed and at least 10 technical replicates were used for each biological replicate. […] (n = 6 independent experiments and each n consisted of a minimum of ten technical replicates).

[4] = UA196 worms+NS132, Day 10, per trial (10 worms)
[5] = UA196 worms+NS132, Day 15, per trial (10 worms)

SMILES: Cc1ccc(NC(=O)c2ccc(NC(=O)c3ccc([N+](=O)[O-])c(NCCc4c[nH]c5ccccc45)n3)c(NCC3CCCCC3)n2)c(OCC(=O)O)n1 [NS132]
- ThT fluorescence intensity, Average ([1]; 100 µM αS + equimolar ligand, aggregation profile Fig. 2n/5c, time 0 hr): 108
- ThT fluorescence intensity, Average ([1]; 100 µM αS + equimolar ligand, comparison with reported ligands Fig. 5f, time 0 hr): 49.3333
- effect on αS aggregation (ThT assay), in words ([1]; 100 µM αS, equimolar, four days): completely suppressed
- ThT intensity relative to Synuclein alone (=1), Average ([1]; 100 µM αS, four days, equimolar): 0.008333
- ThT intensity relative to Synuclein alone (=1), Trial 1-3 ([1]; 100 µM αS, four days, equimolar, individual trials): 0.009745 and 0.008898 and 0.006356
- ThT fluorescence intensity, Average ([1]; Fig. 2n/5c profile, time 6 hr): 108
- ThT fluorescence intensity, Average ([1]; Fig. 2n/5c profile, time 12 hr): 44.6667
- ThT fluorescence intensity, Average ([1]; Fig. 2n/5c profile, time 24 hr): 48.6667
- ThT fluorescence intensity, Average ([1]; Fig. 2n/5c profile, time 35 hr): 41
- ThT fluorescence intensity, Average ([1]; Fig. 2n/5c profile, time 48 hr): 76.6667
- ThT fluorescence intensity, Average ([1]; Fig. 2n/5c profile, time 58 hr): 49
- ThT fluorescence intensity, Average ([1]; Fig. 2n/5c profile, time 77 hr): 35
- ThT fluorescence intensity, Average ([1]; Fig. 2n/5c profile, time 105 hr): 35.3333
- ThT fluorescence intensity, Average ([1]; Fig. 5f profile, time 6 hr): 35.6667
- ThT fluorescence intensity, Average ([1]; Fig. 5f profile, time 12 hr): 44.3333
- ThT fluorescence intensity, Average ([1]; Fig. 5f profile, time 24 hr): 46
- ThT fluorescence intensity, Average ([1]; Fig. 5f profile, time 36 hr): 47.6667
- ThT fluorescence intensity, Average ([1]; Fig. 5f profile, time 48 hr): 43.6667
- ThT fluorescence intensity, Average ([1]; Fig. 5f profile, time 72 hr): 43.6667
- ThT fluorescence intensity, Average ([1]; Fig. 5f profile, time 96 hr): 44.6667
- Relative ThT intensity of αS aggregation, Average ([1]; sheet S7A, Synuclein alone about 1): 0.008333
- Relative ThT intensity of αS aggregation ([1]; sheet S7A, Synuclein alone about 1, individual trials): 0.009745 and 0.008898 and 0.006356
- Relative ThT intensity of αS aggregation, Average ([1]; sheet S8B, Synuclein alone = 1): 0.04997
- Relative ThT intensity of αS aggregation ([1]; sheet S8B, Synuclein alone about 1, individual trials): 0.0476 and 0.0492 and 0.0531
- ThT intensity of Synuclein with ligand, Average ([1]; sheet S17, average of 3 trials, Synuclein alone 206, ThT control 37): 50.3667
- ThT intensity of Synuclein with ligand, Trial 1-3 ([1]; sheet S17, individual trials, Synuclein alone average 206, ThT control average 37): 48.4 and 53.2 and 49.5
- inhibition of αS aggregation, in words ([1]; substoichiometric ratio αS:NS132 1:0.2): wholly inhibit
- ThT intensity (raw), individual trials ([1]; αS aggregation after four days, NS132 derivatives equimolar (Fig. 2r)): 1344 and 1402 and 1510
- number of inclusions in NL5901, individual trials ([2]; Day 8): 3 and 2 and 6 and 5 and 9 and 4 and 7 and 8
- number of inclusions in NL5901, individual trials ([2]; Day 9): 5 and 6 and 7 and 8 and 11 and 10 and 3 and 9 and 4
- number of inclusions ([2]; day eight): ~ 5 inclusions/worm
- number of inclusions ([2]; day nine): ~ 6.6 inclusions/worm
- number of intact healthy DA neurons (max. 60) ([3]; 50 μM ligand on day five, day 15 (untreated 13.8 / 12.8)): 32
- healthy DA neurons, Average ([3]; UA196+ 50 uM NS132, day 5 (same value as UA196 control)): 44.8333
- healthy DA neurons, Average ([3]; UA196+ 50 uM NS132, day 10): 34.8333
- healthy DA neurons, Average ([3]; UA196+ 50 uM NS132, day 15): 32
- healthy DA neurons per trial ([3]; UA196 worms+Ligands, single trials 1-6, day not given): 31 and 33
- Number of worms with 5 neurons [3, 4]: 1 and 2
- Number of worms with 6 neurons [3, 4]: 0
- number of worms with 3 neurons [3, 4]: 4 and 3
- number of worms with 4 neurons [3, 4]: 3 and 4
- Number of worms with 2 neurons [3, 5]: 1 and 2
- Number of worms with 5 neurons [3, 5]: 0
- Number of worms with 6 neurons [3, 5]: 0
- number of worms with 3 neurons [3, 5]: 4 and 3 and 2
- number of worms with 4 neurons [3, 5]: 4 and 5 and 6
